Where a name gives a salt, the structure may show the parent alone. Read-outs that look alike come from different tables or passages of the source.
Key:
[1] = target: T1, purified recombinant human PKD1 (Homo sapiens, UniProt Q15139); test: radiometric PKD kinase activity assay; type: biochemical
T1 sequence (Q15139 1-912): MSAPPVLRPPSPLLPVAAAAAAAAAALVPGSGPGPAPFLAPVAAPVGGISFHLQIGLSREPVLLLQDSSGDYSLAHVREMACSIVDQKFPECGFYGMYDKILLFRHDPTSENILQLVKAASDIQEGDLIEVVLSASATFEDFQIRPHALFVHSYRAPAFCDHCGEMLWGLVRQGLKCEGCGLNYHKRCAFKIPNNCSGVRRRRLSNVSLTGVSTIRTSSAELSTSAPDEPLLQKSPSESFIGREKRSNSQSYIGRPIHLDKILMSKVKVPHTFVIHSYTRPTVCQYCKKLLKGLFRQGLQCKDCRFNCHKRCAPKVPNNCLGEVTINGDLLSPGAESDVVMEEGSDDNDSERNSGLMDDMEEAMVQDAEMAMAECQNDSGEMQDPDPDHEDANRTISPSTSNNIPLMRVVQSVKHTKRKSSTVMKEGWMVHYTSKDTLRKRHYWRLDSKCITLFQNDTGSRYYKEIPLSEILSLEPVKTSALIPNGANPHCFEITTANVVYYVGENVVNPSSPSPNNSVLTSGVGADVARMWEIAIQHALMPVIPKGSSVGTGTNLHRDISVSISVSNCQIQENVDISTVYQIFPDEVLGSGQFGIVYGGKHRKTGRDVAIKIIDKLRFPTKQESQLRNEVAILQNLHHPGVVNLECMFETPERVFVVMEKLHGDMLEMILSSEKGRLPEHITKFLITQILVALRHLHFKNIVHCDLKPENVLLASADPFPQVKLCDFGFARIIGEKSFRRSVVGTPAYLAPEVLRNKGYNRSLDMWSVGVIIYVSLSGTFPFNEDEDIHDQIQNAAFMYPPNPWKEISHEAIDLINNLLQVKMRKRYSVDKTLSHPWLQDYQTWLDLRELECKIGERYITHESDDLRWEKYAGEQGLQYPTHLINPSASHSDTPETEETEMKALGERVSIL
Experimental: The radiometric PKD kinase assay was carried out by co-incubating 0.5 μCi γ-32P-ATP (PerkinElmer, Boston, Mass.), 20 μM ATP, 50 ng purified recombinant human PKD (PKD1, PKD2, PKD3) proteins, and 2.5 μg Syntide-2 (Sigma) in 50 μl kinase buffer that contains 50 mM Tris-HCl, pH 7.5, 4 mM MgCl2, 10 mM β-mercaptoethanol. The reaction was carried out under sub-saturation conditions, such that the initial rate was within linear kinetic range. The reaction mixture was incubated at 30° C. for 10 min, followed by spotting 25 μl of the mix onto a Whatman P81 filter paper (Whatman Inc, Clifton, N.J.). The filter papers were then washed three times in 0.5% phosphoric acid, air-dried, and counted using a Beckman LS6500 multi-purpose scintillation counter (Beckman, Fullerton, Calif.).

[2] = read-out: IC50 radiometric PKD1

| SMILES | melting point | IC50 [1, 2] [µM] | further results |
| --- | --- | --- | --- |
| COc1ccc2oc3c(c2c1)CCCNC3=O [kb-NB77-56, 7-Methoxy-2,3,4,5-tetrahydro-[1]benzoxolo[2,3-c]azepin-1-one] | 261 to 263 °C | – | – |
| CN1CCCc2c(oc3ccc(O)cc23)C1=O [kb-NB142-25, 7-Hydroxy-2-methyl-3,4,5-trihydro-[1]benzoxolo[2,3-c]azepin-1-one] | 282 to 284 °C | – | – |
| O=C1NCCSc2c1sc1ccc(OCc3ccccc3)cc21 [kb-NB123-66, 3,4-Dihydro-9-benzyloxy-[1]benzothieno[2,3-f]-1,4-thiazepin-5(2H)-one] | 247 to 249 °C | – | – |
| CC(C)(C)[Si](C)(C)Oc1ccc2oc(=O)c3c(c2c1)CCCN3 | 117 to 119 °C | – | – |
| O=C1NCCSc2c1sc1cnc(O)nc21 (as salt: hydrochloride) [kmg-NB4-69A, 2-Hydroxy-7H,8H,9H-1,4-thiazepino[7′,6′-5,4]thiopheno[3,2-d]pyrimidin-6-one] | 335.9 °C (dec.) | – | – |
| COc1ccc2c(c1)c1c([s+]2[O-])C(=O)NCCS1 (stereo not shown) [kb-NB184-25, 3,4-Dihydro-9-methoxy-6-oxide-[1]benzothieno[2,3-f]-1,4-thiazepin-5(2H)-one] | 284 to 287 °C | 1.08 | – |
| CC(=O)Oc1ccc2oc3c(c2c1)CCCN(C(C)=O)C3=O [kb-NB123-45-1, 2-Acetyl-1-oxo-3H,4H,5H-azepino[5,6-d]benzo[b]furan-7-yl acetate] | 155 to 157 °C | – | – |
| O=C1NCCSc2c1sc1ccc(O)c(Br)c21 [kb-NB184-52, 3,4-Dihydro-9-hydroxy-10-bromo-[1]benzothieno[2,3-f]-1,4-thiazepin-5(2H)-one] | 235 to 238 °C (dec.) | 0.048 | – |
| CC(C)(C)[Si](C)(C)Oc1ccc2oc3c(c2c1)CCCNC3=O | 209 to 212 °C | – | – |
| COc1ccc2sc3c(c2c1)SCCN(C)C3=O [kb-NB165-16, 2,3-Dihydro-4-Methyl-9-methoxy-[1]benzothieno[2,3-f]-1,4-thiazepin-5(2H)-one] | 160 to 161 °C | 4.57 ± 0.78 | – |
| O=C(OCc1ccccc1)N1CCCc2c1c(=O)oc1ccc(O)cc21 [kb-NB77-91, Phenylmethyl 9-hydroxy-5-oxo-1,2,3,4-tetrahydrochromeno[3,4-b]pyridine-4-carboxylate] | 235 to 237 °C | – | – |
| COc1cccc2c3c(sc12)C(=O)NCCS3 [kb-NB184-44, 3,4-Dihydro-7-methoxy-[1]benzothieno[2,3-f]-1,4-thiazepin-5(2H)-one] | 220 to 224 °C | – | – |
| C=CCOc1ccc2oc3c(c2c1)CCCNC3=O [kb-NB77-84, 7-Allyloxy-2,3,4,5-tetrahydro-[1]benzoxolo[2,3-c]azepin-1-one] | 198 to 200 °C | – | IC50 ([1]; radiometric kinase activity assay, in vitro, read-out: IC50 PKD1): 0.123 µM |
| O=C(CCl)Nc1ccc2sc3c(c2c1)SCCNC3=O [mcf292-09, 3,4-Dihydro-9-(2-chloroacetamido)-[1]benzothieno[2,3-f]-1,4-thiazepin-5(2H)-one] | 229 to 230 °C (dec.) | 1.5 | – |
| O=C1NCCSc2c1sc1c(OCc3ccccc3)cccc21 [kb-NB184-38, 3,4-Dihydro-7-benzyloxy-[1]benzothieno[2,3-f]-1,4-thiazepin-5(2H)-one] | 213 to 215 °C | – | – |
| O=C1NCCCOc2c1sc1ccc(OCc3ccccc3)cc21 [kb-NB184-36, 2,3,4,5-Tetrahydro-10-benzyloxybenzo[b]thieno[2,3-f]-1,5-oxazocin-6-one] | 195 to 200 °C | – | – |
| O=C1NCCc2c1oc1ccc(O)cc21 [kb-NB123-23A, 6-Hydroxy-2,3,4-trihydrobenzo[b]pyridino[4,3-d]furan-1-one] | 265 to 268 °C | – | – |
| COc1ccc2oc3c(c2c1)CCN(C)C3=O [kb-NB123-37, 6-Methoxy-2-methyl-2,3,4-trihydrobenzo[b]pyridino[4,3-d]furan-1-one] | 168 to 172 °C | – | – |
| COc1nc(OC)c2sc3c(c2n1)SCCNC3=O [kmg-NB5-13C, 2,4-Dimethoxy-7H,8H,9H-1,4-thiazepino[7′,6′-5,4]thiopheno[3,2-d]pyrimidin-6-one] | 288 °C (dec.) | – | – |

| SMILES | melting point | IC50 [1, 2] [µM] | further results |
| --- | --- | --- | --- |
| Nc1ccc2sc3c(c2c1)SCCNC3=O [mcf292-03, 3,4-Dihydro-9-amino-[1]benzothieno[2,3-f]-1,4-thiazepin-5(2H)-one] | 198.6 to 199 °C | 3.17 | – |
| CC(=O)Oc1ccc2oc3c(c2c1)CCCNC3=O [kb-NB123-36, 7-Acetoxy-2,3,4,5-tetrahydro-[1]benzoxolo[2,3-c]azepin-1-one] | 196 to 197 °C | – | – |
| COc1ccc2oc3c(c2c1)CCCN(C)C3=O [kb-NB96-04, 7-Methoxy-2-methyl-3H,4H,5H-azepino[5,6-d]benzo[b]furan-1-one] | 150 to 151 °C | – | – |
| O=C1NCCSc2c1[s+]([O-])c1ccc(O)cc21 (stereo not shown) [kb-NB184-22, 3,4-Dihydro-9-hydroxy-6-oxide-[1]benzothieno[2,3-f]-1,4-thiazepin-5(2H)-one] | 160 to 163 °C (dec.) | – | – |
| O=c1oc2ccc(O)c(Cl)c2c2c1NCCC2 [kb-NB96-47-1, 10-Chloro-9-hydroxy-1,2,3,4-tetrahydrochromeno[3,4-b]pyridin-5-one] | 211 to 213 °C | – | – |
| NCCN1CCSc2c(sc3ccc(O)cc23)C1=O [kb-NB165-75, 2,3-Dihydro-4-(2-aminoethyl)-9-hydroxy-[1]benzothieno[2,3-f]-1,4-thiazepin-5-one] | 250 to 254 °C | 0.757 | – |
| Oc1ccc2oc3c(c2c1)CCCN1CCN=C31 [kb-NB165-15, 5H,6H,7H-Benzo[b]2-imidazolino[1′,2′-7,1]azepino[5,6-d]furan-9-ol] | 230 to 232 °C (dec.) | – | IC50 PKD1 ([1]; radiometric kinase activity assay, in vitro): No inhibition |
| O=C1NCCSc2c1sc1ccc(N=C=S)cc21 [mcf292-05, 3,4-Dihydro-9-isothiocyanato-[1]benzothieno[2,3-f]-1,4-thiazepin-5(2H)-one] | 253 to 253.3 °C | 2.77 | – |
| O=C1NCCSc2c1sc1c(O)cccc21 [kb-NB184-40, 3,4-Dihydro-7-hydroxy-[1]benzothieno[2,3-f]-1,4-thiazepin-5(2H)-one] | 269 to 272 °C (dec.) | – | – |
| COc1ccc2sc3c(c2c1)OCCCNC3=O [kb-NB184-57, 2,3,4,5-Tetrahydro-10-methoxybenzo[b]thieno[2,3-f]-1,5-oxazocin-6-one] | 233 to 237 °C | – | – |
| Oc1ccc2sc3c(c2c1)SCCNC3 [kb-NB165-83, 2,3,4,5-Tetrahydro-9-hydroxy-[1]benzothieno[2,3-f]-1,4-thiazepine] | 182 to 184 °C (dec.) | 16.4 | – |
| COC(=O)c1sc2ccc(OC)cc2c1NCCCO [kb-NB184-80, Methyl 3-(3-hydroxypropylamino)-5-methoxybenzo[b]thiophene-2-carboxylate] | 116 to 120 °C | – | IC50 radiometric PKD1 [1]: not inhibitory |
| c1ccc(COc2ccc3sc4c(c3c2)SCCNC4)cc1 [kb-NB165-81, 2,3,4,5-Tetrahydro-9-benzyloxy-[1]benzothieno[2,3-f]-1,4-thiazepine] | 144 to 145 °C | 39.6 | – |
| O=C1NCCCSc2c1sc1ccc(OCc3ccccc3)cc21 [kb-NB165-89, 2,3,4,5-Tetrahydro-10-benzyloxybenzo[b]thieno[2,3-f]-1,5-thiazocin-6-one] | 198 to 199 °C | 21.7 | – |
| COc1ccc2sc3c(c2c1)[S+]([O-])CCNC3=O (stereo not shown) [kb-NB184-45, 3,4-Dihydro-9-methoxy-1-oxide-[1]benzothieno[2,3-f]-1,4-thiazepin-5(2H)-one] | 215 to 217 °C | – | – |
| COc1nc(O)c2sc3c(c2n1)SCCNC3=O [kmg-NB5-15A, 4-Hydroxy-2-methoxy-7H,8H,9H-1,4-thiazepino[7′,6′-5,4]thiopheno[3,2-d]pyrimidin-6-one] | 295 °C (dec.) | > 30 | – |
| CN1CCSc2c(sc3ccc(O)cc23)C1=O [kb-NB165-17, 2,3-Dihydro-4-methyl-9-hydroxy-[1]benzothieno[2,3-f]-1,4-thiazepin-5-one] | 265 to 268 °C | 0.45 ± 0.05 | – |
| C=CCOc1ccc2oc(=O)c3c(c2c1)CCCN3 [kb-NB77-83, 9-Allyloxy-1,2,3,4-tetrahydrochromeno[3,4-b]pyridin-5-one] | 90 to 91 °C | – | – |
